Among the data in patent US6825201B2 (priority 2001, dated 2004) are EC50 values, retold here.

As a reminder, the EC50 is the midpoint of the concentration-response curve.

The first assay deals with HIV-1 single-round infectious reporter virus. Description: microbe, parasite or virus in culture. The assay is classed as cell-based. The following applies: HeLa CD4 CCR5 cells, single-round HIV-1 reporter virus, MOI 0.01, luciferase read 72 hours after infection; read-out: EC50 Range. How it is done:
Virus infection—Human epithelial cell line, HeLa, expressing the HIV-1 receptors CD4 and CCR5 was propagated in Dulbecco's Modified Eagle Medium (Life Technologies, Gaithersburg, Md.) containing 10% fetal Bovine serum (FBS, Sigma, St. Louis, Mo.) and supplemented with 0.2 mg/ml Geneticin (Life Technologies, Gaithersburg, Md.) and 0.4 mg/ml Zeocin (Invitrogen, Carlsbad, Calif.).
Transfections were performed using lipofectAMINE PLUS reagent as described by the manufacturer (Life Technologies, Gaithersburg, Md.).
1. Compound was added to HeLa CD4 CCR5 cells plated in 96 well plates at a cell density of 5×10^4 cells per well in 100 μl Dulbecco's Modified Eagle Medium containing 10% fetal Bovine serum at a concentration of <20 μM.
2. 100 μl of single-round infectious reporter virus in Dulbecco's Modified Eagle Medium was then added to the plated cells and compound at an approximate multiplicity of infection (MOI) of 0.01, resulting in a final volume of 200 μl per well and a final compound concentration of <10 μM.
3. Samples were harvested 72 hours after infection.
4. Viral infection was monitored by measuring luciferase expression from viral DNA in the infected cells using a luciferase reporter gene assay kit (Roche Molecular Biochemicals, Indianapolis, Ind.). Infected cell supernatants were removed and 50 μl of Dulbecco's Modified Eagle Medium (without phenol red) and 50 μl of luciferase assay reagent reconstituted as described by the manufacturer (Roche Molecular Biochemicals, Indianapolis, Ind.) was added per well. Luciferase activity was then quantified by measuring luminescence using a Wallac microbeta scintillation counter.
5. An EC50 provides a method for comparing the antiviral potency of the compounds of this invention. The effective concentration for fifty percent inhibition (EC50) was calculated with the Microsoft Excel Xlfit curve fitting software.
“N-(benzoyl)-N′-[(4-fluorol-indolin-3-yl)-acetyl]-piperazine [Example 21]”: the EC50 was under 1000 nM.

Still in this assay, the particulars now being: Human immunodeficiency virus 1, HeLa-CD4/CCR5, 72 h, read-out: EC50 Range.
For `COc1ccc(C#N)c2[nH]cc(C(=O)N3CCN(C(=O)c4ccccc4)C[C@H]3C)c12` [Example 28], the EC50 is over 500 nM.

For `COc1c(C(=O)C(=O)N2CCN(C(=O)c3ccccc3)CC2)cnc2c1c(C)nn2C` [Example 10], the EC50 fell in the range of 1000 to 5000 nM.

In the case of `CNC(=O)c1ccc(F)c2c(C(O)C(=O)N3CCN(C(=O)c4ccccc4)CC3)c[nH]c12` (centres unmarked) [Example 32, 3-[2-(4-Benzoyl-piperazin-1-yl)-1-hydroxy-2-oxo-ethyl]-4-fluoro-1H-indole-7-carboxylic acid methylamide], the EC50 was under 1000 nM.

Turning to `COc1cccc2occ(C(=O)C(=O)N3CCN(C(=O)c4ccccc4)CC3)c12` [Example 6], the EC50 is over 500 nM.

For `O=C(C(=O)N1CCN(C(=O)c2ccccc2)CC1)c1csc2ccccc12` [Example 18, 1-(benzoyl)-4-[(benzothiophen-3-yl)-2-oxoacetyl]piperazine], the EC50 lay within 1000 to 5000 nM.

As to `CC1CN(C(=O)c2ccccc2)CCN1C(=O)C(=O)c1cc2cc(Cl)ccc2[nH]1` (centres unmarked) [Example 9], the EC50 was under 1000 nM.

On to `COc1ccc(-c2nc(C)n[nH]2)c2[nH]cc(C(=O)N3CCN(C(=O)c4ccccc4)CC3)c12` [Example 26], for which the EC50 fell in the range of 1000 to 5000 nM.

In the case of `O=C(C(=O)N1CCN(C(=O)c2ccccc2)CC1)c1cc2ccccc2[nH]1` [Example 5, 1-(benzoyl)-4-[(indol-2-yl)-2-oxoacetyl]piperazine], the concentration giving a half-maximal response (EC50) was under 1000 nM.

`COc1c(C(=O)C(=O)N2CCN(C(=O)c3ccccc3)CC2C)cnc2c1c(C)nn2C` (centres unmarked) [Example 12]: the EC50 fell in the range of 1000 to 5000 nM.

Consider `CC1CN(C(=O)c2ccccc2)CCN1C(=O)C(=O)c1cc2cc(F)ccc2[nH]1` (centres unmarked) [Example 8], for which the EC50 was under 1000 nM.

`O=C(c1ccccc1)N1CCN(C(=O)c2c[nH]c3cccc(F)c23)CC1` [Example 29]: the EC50 is under 1000 nM.

On to `O=C(C(=O)N1CCN(C(=O)c2ccccc2)CC1)c1cc2ccccc2s1` [Example 19, 1-(benzoyl)-4-[(benzothiophen-2-yl)-2-oxoacetyl]piperazine], for which the EC50 fell in the range of 1000 to 5000 nM.

For the compound `COc1cccc2occ(C(=O)C(C#N)N3CCN(C(=O)c4ccccc4)CC3)c12` (centres unmarked) [Example 3], the EC50 was under 1000 nM.

Take `COc1ccc2cc(C(=O)C(C#N)N3CCN(C(=O)c4ccccc4)CC3C)[nH]c2c1` (centres unmarked) [Example 2]: the EC50 is under 1000 nM.

With `CNC(=O)c1ccc(F)c2c(CC(=O)N3CCN(C(=O)c4ccccc4)CC3)c[nH]c12` [Example 31, 3-[2-(4-Benzoyl-piperazin-1-yl)-2-oxo-ethyl]-4-fluoro-1H-indole-7-carboxylic acid methylamide], the concentration giving a half-maximal response (EC50) fell in the range of 1000 to 5000 nM.

As to `CCCCNc1c(C(=O)C(=O)N2CCN(C(=O)c3ccccc3)CC2C)cnc2c1cnn2CC` (centres unmarked) [Example 13], the EC50 was under 1000 nM.

As to `O=C(C(=O)N1CCN(C(=O)c2ccccc2)CC1)c1cccc2[nH]ccc12` [Example 22, 1-(4-benzoyl-piperazin-1-yl)-2-(1H-indol-4-yl)-ethane-1,2-dione], the EC50 is under 1000 nM.

With `COc1ccc(C#N)c2[nH]cc(C(=O)N3CCN(C(=O)c4ccccc4)CC3)c12` [Example 27], the EC50 was over 500 nM.

Turning to `CCCCNc1c(C(=O)C(=O)N2CCN(C(=O)c3ccccc3)CC2)cnc2c1cnn2CC` [Example 14], the EC50 was over 5000 nM.
